Source: paper PMC2756574, “Crystal Structures of Multidrug Binding Protein TtgR in Complex with Antibiotics and Plant Antimicrobials” (Journal of Molecular Biology, 2007)

Legend:
TtgR [1] = target: T1, TtgR (Pseudomonas putida, UniProt Q9AIU0); assay: isothermal titration calorimetry; type: binding
T1 construct: full-length, ttgR in pET29a+, expressed in E. coli B834(DE3); heparin and gel filtration purification; homodimer; residues about 10-210 seen in crystals

TtgR [2] = target: TtgR (Pseudomonas putida, UniProt Q9AIU0, R176G); assay: biochemical
TtgR [3] = target: T1, TtgR; assay: X-ray crystal structure of complex; conditions: general binding site, 2 per dimer; co-crystal, 2.4 Å

| SMILES | Kd (TtgR [1]) [µM] | Kd (TtgR [2]) [µM] | X-ray crystal structure of complex (TtgR [3]) |
| --- | --- | --- | --- |
| O=C(CCc1ccc(O)cc1)c1c(O)cc(O)cc1O [phloretin] | 0.05 ± 0.01 | 9.2 ± 0.5 |  |
| O=c1c(O)c(-c2ccc(O)c(O)c2)oc2cc(O)cc(O)c12 [quercetin] |  |  | Both effectors bind at similar locations to the hydrophobic binding site as tetracycline and chloramphenicol |
